Molecular target: T1, aryl hydrocarbon receptor (AHR) (Homo sapiens, UniProt P35869)
T1 sequence (P35869 11-848): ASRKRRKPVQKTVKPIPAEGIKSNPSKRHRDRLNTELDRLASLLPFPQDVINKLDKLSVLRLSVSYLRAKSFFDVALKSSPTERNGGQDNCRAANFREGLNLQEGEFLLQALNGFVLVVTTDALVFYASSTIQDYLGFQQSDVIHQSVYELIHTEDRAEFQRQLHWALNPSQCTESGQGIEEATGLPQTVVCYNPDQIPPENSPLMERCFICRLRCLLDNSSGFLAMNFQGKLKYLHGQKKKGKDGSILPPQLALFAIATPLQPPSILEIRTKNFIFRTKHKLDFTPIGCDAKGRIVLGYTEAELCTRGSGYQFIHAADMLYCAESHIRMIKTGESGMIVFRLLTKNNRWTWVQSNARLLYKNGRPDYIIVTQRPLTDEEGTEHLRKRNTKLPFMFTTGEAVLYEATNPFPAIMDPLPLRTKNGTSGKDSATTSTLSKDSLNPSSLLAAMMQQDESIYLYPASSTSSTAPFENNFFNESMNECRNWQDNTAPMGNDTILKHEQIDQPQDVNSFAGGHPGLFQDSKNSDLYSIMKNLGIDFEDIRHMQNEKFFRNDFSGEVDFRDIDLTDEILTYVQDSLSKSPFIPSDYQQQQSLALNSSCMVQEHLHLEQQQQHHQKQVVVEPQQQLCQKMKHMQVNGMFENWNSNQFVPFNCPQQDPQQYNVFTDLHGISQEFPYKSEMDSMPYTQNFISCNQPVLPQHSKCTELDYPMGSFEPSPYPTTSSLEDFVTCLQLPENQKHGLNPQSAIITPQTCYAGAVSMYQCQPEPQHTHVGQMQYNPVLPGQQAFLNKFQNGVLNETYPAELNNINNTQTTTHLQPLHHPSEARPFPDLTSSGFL
Experiment: DRE-Luciferase reporter high-throughput screen (AHR antagonist, VAF347-activated)

## CC(C)NC(=O)c1nc(-c2cn(-c3ccccc3)cn2)n2ccccc12 [101A]
  IC50: 1 to 2 µM

## CCOC(=O)c1sc(NC(=O)c2ccc3ncsc3c2)cc1C [compound 39]
  IC50: 0.5 to 1 µM

## CCOc1ccc(NC(=O)c2c(C)coc2C)cc1 [11B]
  IC50: 0.5 to 1 µM

## Cn1c(SCc2ccccc2Cl)nnc1-c1csc(-c2cccnc2)n1 [53A]
  IC50: 1 to 2 µM

## COc1ccc(Br)cc1-c1nc(Cn2cnc(C#N)n2)cs1 [35B]
  IC50: > 2 µM

## Cc1ccc(CS(=O)(=O)c2ccc(C(F)(F)F)cn2)cc1 [92A]
  IC50: 1 to 2 µM

## C#CCOc1ccc(C(=O)Nc2cccc(OC)c2)cc1 [1A]
  IC50: > 2 µM

## CN(CC(=O)NC(=O)Nc1ccccc1)Cc1ccc(Cl)s1 [compound 153]
  IC50: 0.5 to 1 µM

## COc1ccc(C(=O)Nc2cccc(F)c2)cc1C [1B]
  IC50: 1 to 2 µM

## CC(NC(=O)c1c(N)n(C)c2ccccc2c1=O)c1ccccc1 (centres unmarked) [165A]
  IC50: > 2 µM

## COc1ccc(CC(=O)Nc2ccc(-c3nccs3)cc2)cc1S(=O)(=O)N1CCOCC1 [compound 63]
  IC50: 0.5 to 1 µM

## Cc1ccc(NC(=O)CN(C)C(C)c2cccs2)c(F)c1 (centres unmarked) [147A]
  IC50: > 2 µM

## COc1cc(OC)c(NC(=O)c2[nH]nc3c2CSc2ccccc2-3)cc1Cl [compound 34]
  IC50: 0.2 to 0.5 µM

## CSc1nccc(NC(=O)c2cccc(C(F)(F)F)c2)n1 [14A]
  IC50: > 2 µM

## CCn1cc(C(=O)Nc2ccc(C(C)C)cc2)cn1 [23A]
  IC50: 1 to 2 µM

## COc1ccc(Nc2ccc3ccccc3n2)cc1Cl [157A]
  IC50: 1 to 2 µM

## CC(C)CCNC(=O)c1cc2c(=O)n(C)c3ccccc3c2s1 [compound 145]
  IC50: 0.5 to 1 µM

## CN(C)C(=O)c1ccc(-c2cc(C(F)(F)F)nn2C)s1 [59B]
  IC50: 0.5 to 1 µM

## Cc1ccc(NC(=O)c2ccc(OC(F)(F)F)cc2)nc1 [compound 10]
  IC50: 0.5 to 1 µM

## Cc1ccccc1OCCNC(=O)c1cc(Cl)ccc1F [141A]
  IC50: 1 to 2 µM

## c1ccc(-c2nc(-c3ccc4c(c3)CCO4)no2)cc1 [85B]
  IC50: 0.5 to 1 µM

## FC(F)(F)c1cnc(-c2cnc(-c3ccccn3)nc2)c(Cl)c1 [compound 87]
  IC50: 0.5 to 1 µM

## FC(F)(F)c1ccc(CSc2nccc(-c3cccnc3)n2)cc1 [46B]
  IC50: 0.2 to 0.5 µM

## O=C(Nc1ccc(OC(F)(F)F)cc1)c1ccc(F)cc1 [6A]
  IC50: 1 to 2 µM

## Cc1cc(NC(=O)c2nnn(-c3ccccc3)c2C)no1 [19B]
  IC50: > 2 µM

## Cc1nccc(-c2cc(-c3ccc(Cl)cc3Cl)no2)n1 [131A]
  IC50: 1 to 2 µM

## COC(OC)c1ccc(C#N)c(=O)n1Cc1ccc(Cl)cc1 [92B]
  IC50: 1 to 2 µM

## O=C(Nc1ccc(N2CCc3sccc3C2)nc1)c1cc(Br)c[nH]1 [32A]
  IC50: 1 to 2 µM

## CC(C)C(=O)Nc1ccc2c(c1)C(=O)c1c-2nn(C)c1C(C)(C)C [compound 148]
  IC50: 0.5 to 1 µM

## c1ccc(-c2ccc(N3CCOCC3)s2)cc1 [100B]
  IC50: > 2 µM

## CN(C)c1nc(N2CCN(c3ccc(F)cc3)CC2)cc(C(F)(F)F)n1 [compound 81]
  IC50: 0.2 to 0.5 µM

## N#Cc1cccnc1Oc1ccc(NC(=O)c2ccc(F)cc2F)cc1 [5A]
  IC50: 1 to 2 µM

## COc1ccc(Nc2cc(C)nc(-c3ccccc3O)n2)cc1 [47B]
  IC50: 1 to 2 µM

## CCN(CC)c1ncnc2sc(-c3ccccc3)cc12 [170A]
  IC50: 1 to 2 µM

## CNC(=O)N(C)C(=O)c1cnc2onc(-c3ccc(C)cc3)c2c1 [173A]
  IC50: 1 to 2 µM

## COc1ccc(OCCSc2nc3ccc(Br)cc3[nH]2)cc1 [112A]
  IC50: 1 to 2 µM

## COc1ccc(Cl)cc1C(=O)NCc1ccc(Cl)cc1 [89B]
  IC50: 1 to 2 µM

## CSc1nc(-c2ccccc2)nc2[nH]c(-c3ccccc3)cc(=O)c12 [166A]
  IC50: 1 to 2 µM

## Cc1nn(-c2ccccc2)c(N)c1-c1nc(-c2ccc(Cl)cc2)cs1 [59A]
  IC50: > 2 µM

## FC(F)(F)c1nnc2ccc(N3CCN(c4ccccc4)CC3)nn12 [73A]
  IC50: > 2 µM

## COc1ccc(C(=O)Nc2ccc(C)c(F)c2)cc1 [2B]
  IC50: 1 to 2 µM

## O=C(c1cc2sc3ccccc3c2s1)N1CCCCC1 [186A]
  IC50: > 2 µM

## Cc1nc(-c2ccccc2F)sc1C(=O)NCc1ccccn1 [63A]
  IC50: > 2 µM

## COc1ccc(-c2cnn3c(C)cc(C)nc23)cc1OC [71B]
  IC50: 1 to 2 µM

## CCCCc1ccc(C(=O)Nc2ccccc2O)cc1 [8A]
  IC50: > 2 µM

## CCN1C(=O)C[C@@H]2[C@@H]1CCN2S(=O)(=O)Cc1ccc(C)cc1 [182A]
  IC50: 1 to 2 µM

## O=c1cc(NCc2cccc(C(F)(F)F)c2)nc2ccc(Cl)cn12 [167A]
  IC50: > 2 µM
